Tested on: LG0567-F671-PDC KRAS tumor spheroid viability
Assay: Anticancer human tumor LG0567-F671-PDC patient-derived lung adenocarcinoma cell line growth inhibition [KRAS2]
Settings: spheroids with HUVEC and MSC; for IC50: curve of first compound; for viability, T/C: stronger effect = lower value
From the text: Multicellular complex tumor spheroid response to RAS pathway inhibitors in combination with a targeted agents in patient-derived cell lines with oncogenic KRAS variants from multiple cancer types
A high-throughput screen of multi-cell type tumor spheroids was designed to identify active combinations of targeted small molecules and KRAS pathway inhibitors. Complex spheroids include a stromal component modeled by human endothelial cells (HUVEC) and fibroblasts modeled by human mesenchymal stem cells (MSCs). The concentration ranges selected for each drug and investigational agent were based upon clinically achievable concentrations if the clinical Cmax of the agent was known.
Compounds. The drugs and investigational agents: BI-3406 (NSC825286), BAY-293 (NSC824723), batoprotafib (TNO155; NSC825523), sotorasib (AMG 510; NSC818433), MRTX1257 (NSC819558), elimusertib (BAY 1895344; NSC800525), molibresib (GSK525762; NSC774829), temuterkib (LY3214996; NSC803410), venetoclax (NSC766270), alisertib (NSC759677), olaparib (NSC753686), talazoparib (NSC767125), erdafitinib (NSC781556), ipatasertib (NSC767898), cabozantinib (NSC761068), nintedanib (NSC756659), abemaciclib (NSC768073), docetaxel (NSC628503), trametinib (NSC758246), and sapanisertib (NSC764658) were obtained from the National Cancer Institute (NCI) Developmental Therapeutics Program Chemical Repository. The FDA-approved anticancer drug set is available from the Developmental Therapeutics Program. […] The stock solutions were prepared in dimethyl sulfoxide (DMSO, Sigma-Aldrich, St. Louis, MO, cat. D2650) at 800-fold the tested concentration and stored at -70 degrees C prior to their use. All drugs and investigational agents were tested over a range starting from a high concentration at or near the clinical Cmax and decreasing in half-log increments. If the clinical Cmax for an agent had not been determined, the highest concentration tested was 10 microM.
Cell Culture. All cells were maintained in an incubator at 37 degrees C and 5% CO2 with 95% humidity. The PDC lines were cultured according to standard operating procedures established by the NCI PDMR (https://pdmr.cancer.gov/sops/default.htm). Briefly, all PDCs were thawed and cultured in Matrigel-coated flasks prepared with a working solution of 1X Ham's F-12 nutrient mix, without supplementation (Invitrogen, Waltham, MA, cat. 11765054), 100 U/mL penicillin-streptomycin (Invitrogen, cat. 15140122), and 2.5% Matrigel (Corning Inc., Corning, NY, cat. 354248) for the first three passages. All PDCs were cultured in complete DMEM/F-12 media containing advanced DMEM/F-12 (Invitrogen, cat. 12634028), 4.9% defined fetal bovine serum, heat inactivated (HyClone Laboratories Inc., Logan, UT, cat. SH30070.03HI), 389 ng/mL hydrocortisone (Sigma-Aldrich, cat. H4001), 9.7 ng/mL human EGF recombinant protein (Invitrogen, cat. PHG0313), 23.4 microg/mL adenine (Sigma-Aldrich, cat. A2786), 97.3 U/mL penicillin-streptomycin (Invitrogen, cat. 15140122), 1.9 mM L-glutamine (Invitrogen, cat. 25030081), and 9.7 microM Y-27632 dihydrochloride (Tocris Bioscience, Bristol, United Kingdom, cat. 1254). The PDCs were cultured in complete DMEM/F12 media without 9.7 microM Y-27632 dihydrochloride for at least two passages prior to the screen. The established cell line HOP-62 was cultured in RPMI 1640 medium, HEPES (Invitrogen, cat. 22400105) with 10% defined fetal bovine serum (HyClone Laboratories Inc., cat. SH30070.03) and 2 mM L-glutamine (Invitrogen, cat. 25030081). The pooled donor HUVEC were cultured in endothelial cell growth medium 2 (PromoCell, Heidelberg, Germany, cat. C-22011) and the hMSC were cultured in mesenchymal stem cell growth medium 2 (PromoCell, cat. C-28009). For all experiments, HUVEC and hMSC were used at passages </=5, while the malignant cell lines were used at passages </=15. […]

[1] = second compound 0.1 µM, first compound 0.0316 µM
[2] = second compound 0.1 µM, first compound 0.1 µM
[3] = second compound 0.1 µM, first compound 0.316 µM
[4] = second compound 0.1 µM, first compound 1 µM
[5] = second compound 0.1 µM, first compound 3.16 µM
[6] = second compound 0.316 µM, first compound 0.0316 µM
[7] = second compound 0.316 µM, first compound 0.1 µM
[8] = second compound 0.316 µM, first compound 0.316 µM
[9] = second compound 0.316 µM, first compound 1 µM
[10] = second compound 0.316 µM, first compound 3.16 µM
[11] = second compound 1 µM, first compound 0.0316 µM
[12] = second compound 1 µM, first compound 0.1 µM
[13] = second compound 1 µM, first compound 0.316 µM
[14] = second compound 1 µM, first compound 1 µM
[15] = second compound 1 µM, first compound 3.16 µM
[16] = second compound 3.16 µM, first compound 0.0316 µM
[17] = second compound 3.16 µM, first compound 0.1 µM
[18] = second compound 3.16 µM, first compound 0.316 µM
[19] = second compound 3.16 µM, first compound 1 µM
[20] = second compound 3.16 µM, first compound 3.16 µM
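Further: drug exposure lasted seven days after spheroids formed for three days.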
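Wherever viability, T/C is given: 100% = DMSO vehicle control viability.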

Row | Compound | IC50 (second compound 0.1 µM) [nM] | IC50 (second compound 0.316 µM) [nM] | IC50 (second compound 1 µM) [nM] | IC50 (second compound 3.16 µM) [nM] | viability, T/C [1] [%] | viability, T/C [2] [%] | viability, T/C [3] [%] | viability, T/C [4] [%] | viability, T/C [5] [%] | viability, T/C [6] [%] | viability, T/C [7] [%] | viability, T/C [8] [%] | viability, T/C [9] [%] | viability, T/C [10] [%] | viability, T/C [11] [%] | viability, T/C [12] [%] | viability, T/C [13] [%] | viability, T/C [14] [%] | viability, T/C [15] [%] | viability, T/C [16] [%] | also measured
1 | Cn1nccc1Nc1nccc(-c2cc3c(s2)C(C)(C)N(CCN2CCOCC2)C3=O)n1 + C=CC(=O)N1CCN(c2nc(OCC3CCCN3C)nc3c2CCN(c2cccc4cccc(C)c24)C3)CC1CC#N | < 31.6 | < 31.6 | < 31.6 | < 31.6 | 26.8 | 31.8 | 28 | 23.3 | 17.8 | 33.2 | 25.8 | 21.2 | 35.5 | 16.8 | 29.6 | 26.9 | 33.1 | 26.5 | 15.3 | 29.3 | IC50 (second compound 0.0316 µM): < 31.6 nM; viability, T/C (second compound 0.0316 µM, first compound 0.0316 µM): 34.5%; viability, T/C (second compound 0.0316 µM, first compound 0.1 µM): 28.7%; viability, T/C (second compound 0.0316 µM, first compound 0.316 µM): 39.7%; viability, T/C (second compound 0.0316 µM, first compound 1 µM): 19.2%; viability, T/C (second compound 0.0316 µM, first compound 3.16 µM): 19.9%; viability, T/C (second compound 0.0316 µM, first compound 10 µM): 19.7%; viability, T/C (second compound 0.1 µM, first compound 10 µM): 21.1%; viability, T/C (second compound 0.316 µM, first compound 10 µM): 19.1%; viability, T/C (second compound 1 µM, first compound 10 µM): 19.4%; viability, T/C [17]: 29.1%; viability, T/C [18]: 28.1%; viability, T/C [19]: 23.2%; viability, T/C [20]: 21.7%; viability, T/C (second compound 3.16 µM, first compound 10 µM): 24.4%
2 | CC1COCCN1c1cc(-c2ccnn2C)c2ccnc(-c3ccn[nH]3)c2n1 (stereo not given) + CC1OCC2(CCN(c3cnc(Sc4ccnc(N)c4Cl)c(N)n3)CC2)C1N | < 10 | < 10 | < 10 | < 10 | 41.8 | 32 | 36.3 | 41.7 | 48.2 | 31.8 | 24.9 | 18.5 | 21.6 | 27.5 | 23.4 | 19 | 15.3 | 10.2 | 9.22 | 16.3 | IC50 (second compound 10 µM): < 10 nM; viability, T/C (second compound 0.1 µM, first compound 0.01 µM): 59.9%; viability, T/C (second compound 0.316 µM, first compound 0.01 µM): 39%; viability, T/C (second compound 1 µM, first compound 0.01 µM): 28.2%; viability, T/C (second compound 3.16 µM, first compound 0.01 µM): 23%; viability, T/C [17]: 10.9%; viability, T/C [18]: 7.95%; viability, T/C [19]: 8.32%; viability, T/C [20]: 3.11%; viability, T/C (second compound 10 µM, first compound 0.01 µM): 14.4%; viability, T/C (second compound 10 µM, first compound 0.0316 µM): 12%; viability, T/C (second compound 10 µM, first compound 0.1 µM): 7.07%; viability, T/C (second compound 10 µM, first compound 0.316 µM): 3.98%; viability, T/C (second compound 10 µM, first compound 1 µM): 2.99%; viability, T/C (second compound 10 µM, first compound 3.16 µM): 1.57%
